Measured values from paper PMC11062899, “De novo development of small cyclic peptides that are orally bioavailable” (Nature Chemical Biology, 2023).
Several values for one entry are separate records, joined by “and”; a condition that tells them apart may be missing. Identical values can stand only once. Like-named read-outs stand apart in the source and are kept apart here.

Key:
porcine pepsin = biological target: T1, porcine pepsin (Sus scrofa, UniProt P00791); experiment: Peptide stability in simulated gastric fluid (SGF); assay type: in vitro ADME
T1 construct: 0.32 g of porcine pepsin (Sigma-Aldrich, P7125) was dissolved under gentle agitation; purchased Sigma-Aldrich P7125
T1 sequence (P00791 60-385): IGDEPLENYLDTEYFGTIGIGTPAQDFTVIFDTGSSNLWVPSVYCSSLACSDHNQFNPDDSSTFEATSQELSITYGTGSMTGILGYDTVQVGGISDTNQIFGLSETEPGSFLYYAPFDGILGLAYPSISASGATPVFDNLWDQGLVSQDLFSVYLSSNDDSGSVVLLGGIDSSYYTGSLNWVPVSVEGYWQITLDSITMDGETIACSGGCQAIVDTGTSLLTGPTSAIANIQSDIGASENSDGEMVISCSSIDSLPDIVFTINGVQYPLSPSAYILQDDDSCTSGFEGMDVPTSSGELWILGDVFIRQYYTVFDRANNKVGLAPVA
Outline: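 Peptide from a 1 mM DMSO stock was added to fluid pre-warmed at 37 °C. SGF was pH 1.2 NaCl with porcine pepsin (0.32 g per 100 ml), and SIF was pH 6.8 potassium phosphate with porcine pancreatin (1 g per 100 ml). Supernatant peptide was quantified by LC–MS, with residual expressed as T1/T0.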

[1] = Metabolic stability in rat liver microsomes (RLMs); details: for microsomal CLint / half-life: rat
[2] = Passive artificial membrane permeability (PAMPA)
rat α-thrombin = biological target: T2, rat α-thrombin (Rattus norvegicus, UniProt P18292); experiment: Protease inhibition, Ki for rat α-thrombin (fluorogenic substrate Z-Gly-Gly-Arg-AMC); assay type: biochemical; details: rat alpha thrombin; for Slope normalized to DMSO (proteolytic substrate cleavage over time): replicates R1-R3
T2 construct: rat α-thrombin (Molecular Innovations) were used at final concentrations of 2 nM and 3 nM; purchased Molecular Innovations
Outline: (§1)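 Ki derived through Cheng–Prusoff from IC50s (four-parameter logistic fit) against activity of peptide-free controls. Product fluorescence was read every 3 min over 30 min at 25 °C, substrate Z-Gly-Gly-Arg-AMC at 50 μM. Enzyme was 2 nM human or 3 nM rat α-thrombin, pH 7.4 buffer.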

human α-thrombin = human α-thrombin (Homo sapiens, UniProt P00734); experiment: Protease inhibition, Ki for human α-thrombin (fluorogenic substrate Z-Gly-Gly-Arg-AMC); assay type: biochemical; details: human alpha thrombin; for Slope normalized to DMSO (proteolytic substrate cleavage over time): replicates R1-R3
Outline: as §1

SMILES: O=C1C[C@H]2CCCN2C(=O)[C@H](Cc2ccccc2)NC(=O)[C@@H](NC(=O)c2ccc(Cl)s2)CSCc2cccc(n2)CSCCN1 [compound 31]
- SGF stability, Residual peptide Average (porcine pepsin; after 8 h vs 0 h (TIC), average of R1-R3): 92.45
- SGF stability, Residual peptide (porcine pepsin; after 8 h vs 0 h (TIC), single replicates R1-R3): 99.51 and 90.02 and 87.82
- remaining at 8 h (porcine pepsin; simulated gi fluid, 8 h, 37 °C, pH 1.2, read-out: Proteolytic stability: SGF (8 h) % remaining): 92 ± 6%
- TIC value of compound, 0 min, R1 ([1]; rat liver microsomes, 0 min, replicate R1): 21675652
- TIC value of compound, 0 min, R3 ([1]; rat liver microsomes, 0 min, replicate R3): 21375886
- TIC value of compound, 5 min, R1 ([1]; rat liver microsomes, 5 min, replicate R1): 16129690
- TIC value of compound, 5 min, R3 ([1]; rat liver microsomes, 5 min, replicate R3): 21185792
- TIC value of compound, 15 min, R1 ([1]; rat liver microsomes, 15 min, replicate R1): 14173175
- TIC value of compound, 15 min, R3 ([1]; rat liver microsomes, 15 min, replicate R3): 14991116
- TIC value of compound, 30 min, R1 ([1]; rat liver microsomes, 30 min, replicate R1): 10634659
- TIC value of compound, 30 min, R3 ([1]; rat liver microsomes, 30 min, replicate R3): 9842710
- TIC value of compound, 60 min, R1 ([1]; rat liver microsomes, 60 min, replicate R1): 4587256
- TIC value of compound, 60 min, R3 ([1]; rat liver microsomes, 60 min, replicate R3): 4284596
- microsomal CLint ([1]; CL (ul/min/mg protein), R1, RLM CL, replicate R1, unrounded): 53.6 µL/min/mg
- microsomal CLint ([1]; CL (ul/min/mg protein), R2, RLM CL, replicate R2, unrounded): 48.6 µL/min/mg
- microsomal CLint ([1]; CL (ul/min/mg protein), R3, RLM CL, replicate R3, unrounded): 49.4 µL/min/mg
- half-life ([1]; Half Life (min), R1, RLM metabolic stability, replicate R1): 25.9 min
- half-life ([1]; Half Life (min), R2, RLM metabolic stability, replicate R2): 28.5 min
- half-life ([1]; Half Life (min), R3, RLM metabolic stability, replicate R3): 28 min
- half-life ([1]; microsomes, Metabolic stability: Half life T1/2 (min), RLMs, mean and SD, three measurements): 27 ± 1 min
- microsomal CLint ([1]; microsomes, Metabolic stability: RLM CL (ul/min/mg), RLMs, mean and SD, three measurements): 51 ± 2 µL/min/mg
- microsomal CLint ([1]; microsomes, RLM CL, Average, average of R1-R3): 50.6 µL/min/mg
- microsomal CLint ([1]; microsomes, RLM CL, R1, RLM CL, replicate R1, summary block): 53.6 µL/min/mg
- microsomal CLint ([1]; microsomes, RLM CL, R2, RLM CL, replicate R2, summary block): 48.6 µL/min/mg
- microsomal CLint ([1]; microsomes, RLM CL, R3, RLM CL, replicate R3, summary block): 49.4 µL/min/mg
- PAMPA permeability: % permeability ([2]; 50 μM, 12–18 h, acceptor concentration relative to equilibrium): 47 ± 3%
- Papp at 50 μM ([2]; PAMPA, pH 7.4): 6.17 ×10⁻⁶ cm/s
- Permeability% Average ([2]; top well sample vs theoretical equilibrium sample (TIC), average of R1-R3): 46.6%
- Permeability% ([2]; top well sample vs theoretical equilibrium sample (TIC), single replicates R1-R3): 44.27% and 50.38% and 45.09%
- Ki (rat α-thrombin; average of R1-R3, read-out: Ki Average, rat alpha thrombin inhibition): 183 nM
- Slope normalized to DMSO (proteolytic substrate cleavage over time) (rat α-thrombin; peptide 1.02E-03 uM): 99.2 and 100.9 and 93.8
- Slope normalized to DMSO (proteolytic substrate cleavage over time) (rat α-thrombin; peptide 1.04E+00 uM): 29.7 and 30.1 and 28.1
- Slope normalized to DMSO (proteolytic substrate cleavage over time) (rat α-thrombin; peptide 1.27E-04 uM): 101.2 and 100.0 and 97.1
- Slope normalized to DMSO (proteolytic substrate cleavage over time) (rat α-thrombin; peptide 1.30E-01 uM): 74.9 and 71.7 and 69.9
- Slope normalized to DMSO (proteolytic substrate cleavage over time) (rat α-thrombin; peptide 1.59E-05 uM): 103.1 and 102.5 and 98.1
- Slope normalized to DMSO (proteolytic substrate cleavage over time) (rat α-thrombin; peptide 1.63E-02 uM): 92.3 and 92.5 and 97.9
- Slope normalized to DMSO (proteolytic substrate cleavage over time) (rat α-thrombin; peptide 1.67E+01 uM): 5.4 and 8.1 and 5.8
- Slope normalized to DMSO (proteolytic substrate cleavage over time) (rat α-thrombin; peptide 2.03E-03 uM): 98.5 and 94.4 and 93.1
- Slope normalized to DMSO (proteolytic substrate cleavage over time) (rat α-thrombin; peptide 2.08E+00 uM): 20.1 and 19.4 and 16.8
- Slope normalized to DMSO (proteolytic substrate cleavage over time) (rat α-thrombin; peptide 2.54E-04 uM): 119.5 and 99.6 and 95.9
- Slope normalized to DMSO (proteolytic substrate cleavage over time) (rat α-thrombin; peptide 2.60E-01 uM): 60.8 and 61.1 and 58.9
- Slope normalized to DMSO (proteolytic substrate cleavage over time) (rat α-thrombin; peptide 3.18E-05 uM): 100.8 (2×) and 96.5
- Slope normalized to DMSO (proteolytic substrate cleavage over time) (rat α-thrombin; peptide 3.26E-02 uM): 86.1 and 87.0 and 83.0
- Slope normalized to DMSO (proteolytic substrate cleavage over time) (rat α-thrombin; peptide 3.33E+01 uM): 5.3 (2×) and 6.5
- Slope normalized to DMSO (proteolytic substrate cleavage over time) (rat α-thrombin; peptide 4.07E-03 uM): 93.9 and 97.5 and 93.1
- Slope normalized to DMSO (proteolytic substrate cleavage over time) (rat α-thrombin; peptide 4.17E+00 uM): 12.5 and 13.2 and 11.9
- Slope normalized to DMSO (proteolytic substrate cleavage over time) (rat α-thrombin; peptide 5.09E-04 uM): 99.8 and 101.3 and 106.4
- Slope normalized to DMSO (proteolytic substrate cleavage over time) (rat α-thrombin; peptide 5.21E-01 uM): 39.6 and 40.5 and 38.3
- Slope normalized to DMSO (proteolytic substrate cleavage over time) (rat α-thrombin; peptide 6.36E-05 uM): 100.0 and 99.8 and 96.8
- Slope normalized to DMSO (proteolytic substrate cleavage over time) (rat α-thrombin; peptide 6.51E-02 uM): 90.0 and 82.1 and 78.1
- Slope normalized to DMSO (proteolytic substrate cleavage over time) (rat α-thrombin; peptide 6.67E+01 uM): 6.2 and 7.3 and 4.1
- Slope normalized to DMSO (proteolytic substrate cleavage over time) (rat α-thrombin; peptide 7.95E-06 uM): 105.8 and 104.8 and 99.9
- Slope normalized to DMSO (proteolytic substrate cleavage over time) (rat α-thrombin; peptide 8.14E-03 uM): 96.3 and 93.4 and 96.8
- Slope normalized to DMSO (proteolytic substrate cleavage over time) (rat α-thrombin; peptide 8.33E+00 uM): 9.2 and 9.9 and 7.4
- IC50 (rat α-thrombin; single replicates R1-R3, read-out: IC50, rat alpha thrombin inhibition): 339 nM and 326 nM (2×)
- Ki (rat α-thrombin; single replicates R1-R3, read-out: Ki, rat alpha thrombin inhibition): 188 nM (2×) and 181 nM (2×) and 180 nM (2×)
- Ki (human α-thrombin; average of R1-R3, read-out: Ki Average, human alpha thrombin inhibition): 608 nM
- Slope normalized to DMSO (proteolytic substrate cleavage over time) (human α-thrombin; peptide 1.02E-03 uM): 102.8 and 91.6 and 92.3
- Slope normalized to DMSO (proteolytic substrate cleavage over time) (human α-thrombin; peptide 1.04E+00 uM): 41.6 and 46.5 and 44.1
- Slope normalized to DMSO (proteolytic substrate cleavage over time) (human α-thrombin; peptide 1.27E-04 uM): 104.6 and 98.9 and 94.9
- Slope normalized to DMSO (proteolytic substrate cleavage over time) (human α-thrombin; peptide 1.30E-01 uM): 89.0 and 82.0 and 80.6
- Slope normalized to DMSO (proteolytic substrate cleavage over time) (human α-thrombin; peptide 1.59E-05 uM): 106.7 and 95.1 and 97.4
- Slope normalized to DMSO (proteolytic substrate cleavage over time) (human α-thrombin; peptide 1.63E-02 uM): 99.4 and 97.2 and 88.2
- Slope normalized to DMSO (proteolytic substrate cleavage over time) (human α-thrombin; peptide 2.03E-03 uM): 103.4 and 94.4 and 88.8
- Slope normalized to DMSO (proteolytic substrate cleavage over time) (human α-thrombin; peptide 2.08E+00 uM): 29.1 and 35.9 and 29.9
- Slope normalized to DMSO (proteolytic substrate cleavage over time) (human α-thrombin; peptide 2.54E-04 uM): 103.3 and 99.1 and 91.3
- Slope normalized to DMSO (proteolytic substrate cleavage over time) (human α-thrombin; peptide 2.60E-01 uM): 77.6 and 74.7 and 72.2
- Slope normalized to DMSO (proteolytic substrate cleavage over time) (human α-thrombin; peptide 3.18E-05 uM): 106.8 and 94.8 and 91.3
- Slope normalized to DMSO (proteolytic substrate cleavage over time) (human α-thrombin; peptide 3.26E-02 uM): 96.6 and 90.1 and 84.7
- Slope normalized to DMSO (proteolytic substrate cleavage over time) (human α-thrombin; peptide 4.07E-03 uM): 86.5 and 95.5 and 89.4
- Slope normalized to DMSO (proteolytic substrate cleavage over time) (human α-thrombin; peptide 4.17E+00 uM): 17.9 and 25.7 and 18.3
- Slope normalized to DMSO (proteolytic substrate cleavage over time) (human α-thrombin; peptide 5.21E-01 uM): 60.8 and 59.2 and 52.4
- Slope normalized to DMSO (proteolytic substrate cleavage over time) (human α-thrombin; peptide 6.36E-05 uM): 98.6 and 95.0 and 94.0
- Slope normalized to DMSO (proteolytic substrate cleavage over time) (human α-thrombin; peptide 6.51E-02 uM): 91.4 and 89.0 and 83.1
- IC50 (human α-thrombin; single replicates R1-R3, read-out: IC50, human alpha thrombin inhibition): 700 nM and 850 nM and 816 nM
- Ki (human α-thrombin; single replicates R1-R3, read-out: Ki, human alpha thrombin inhibition): 540 nM and 655 nM and 629 nM
